Common to all, as to type: in vivo
For one assay, the system named is PTH agonist. Kind of assay: Clinical trial in ESRD patients: PTH agonist assay (Scantibodies) on blood samples. The conditions noted are these: for PTH agonist decrease: median values; for PTH agonist: median of ninety patients, 5.5 μg intravenously every three days. How it is done: (§1) A clinical trial was held for ninety ESRD patients. Each patient had been receiving vitamin D suppressant therapy in accordance with the manufacturer's guidelines. Each patient was removed from the therapy for a washout period of four weeks, and this was confirmed by a rise in PTH measurements after removal of the therapeutic. PTH maxacalcitol (made by Chugai Pharmaceutical Corporation of Tokyo, Japan) suppressant therapy was started after the washout at a constant administration of 5.5 μg intravenously every three days. Blood samples were obtained from each patient after the washout (week 0), six weeks after therapy restart (week 6), and twelve weeks after therapy restart (week 12). The samples were assayed for PTH agonist levels and PTH antagonist levels using the PTH agonist assay and total PTH assay made by Scantibodies Laboratory, Inc. The samples were assayed for bone specific alkaline phosphatase using a commercially available immunoassay from Hybritech, Inc. of San Diego, Calif.
(§2) The results of the assays for the ninety patients are shown in FIG. 2 and the following table as median values: […]

The test system of another assay is PTH antagonist. Nature of the assay: Clinical trial in ESRD patients: PTH antagonist level (total PTH minus PTH agonist). The conditions noted are these: for PTH antagonist decrease: 6 weeks versus 0 weeks; for PTH antagonist decrease / PTH antagonist increase: median values; for PTH antagonist increase: 12 weeks versus 6 weeks; for PTH antagonist: median of ninety patients, 5.5 μg intravenously every three days.
Source text: PTH antagonist levels should be measured using an assay that either directly detects PTH antagonist (but not PTH agonist) or indirectly through a total PTH measurement that measures the sum of the PTH agonist and PTH antagonist. An indirect measurement subtracts the PTH agonist value from the total PTH value, deriving the PTH antagonist value. Thus, one should use a total PTH assay that is designed to have essentially 100% cross-reactivity with PTH antagonist and PTH agonist. For example, Scantibodies Laboratory Total Intact PTH Assay or Scantibodies Laboratory Intact PTH Assay are appropriate assays.
as §1, §2

Assay [1] deals with bone specific alkaline phosphatase. Kind of assay: Clinical trial in ESRD patients: bone specific alkaline phosphatase immunoassay (Hybritech). The note with it: for Alkaline Phosphatase decrease: median values; for Alkaline Phosphatase: median of ninety patients, 5.5 μg intravenously every three days. How it is done: as §1, §2
A further assay relates to Total PTH. Nature of the assay: Clinical trial in ESRD patients: total PTH assay (Scantibodies) on blood samples. The conditions noted are these: for Total PTH decrease: median values; for Total PTH: median of ninety patients, 5.5 μg intravenously every three days. How it is done: as §1, §2
Where [2] appears, read: 6 weeks versus 0 weeks, listed as PTH suppressant.
Where [3] appears, read: 12 weeks versus 6 weeks, listed as PTH suppressant.

The record followed here is patent US7056655B2, “Methods for monitoring and guiding therapeutic suppression of parathyroid hormone in renal patients having secondary hyperparathyroidism” (Scantibodies Laboratory, Inc., priority 2001, dated 2006).

As for `C=C1/C(=C\C=C2/CCC[C@]3(C)[C@@H]([C@H](C)OCCC(C)(C)O)CC[C@@H]23)C[C@@H](O)C[C@@H]1O` [maxacalcitol], the PTH agonist decrease entry with PTH agonist (6 weeks versus 0 weeks) was “(41% decrease)”; with PTH agonist (setting [2]), 41%; in the assay with PTH agonist (12 weeks versus 6 weeks) it was “(8% decrease)”; in the assay on PTH agonist (setting [3]), 8%. The PTH agonist with PTH agonist (6 weeks (0 weeks: 609)) is 361 pg/mL; in the assay on PTH agonist (12 weeks (0 weeks: 609)), 331 pg/mL. Moreover, the results for the PTH antagonist decrease entry in the assay with PTH antagonist and in the assay on PTH antagonist (listed as PTH suppressant) were “(42% decrease)” and 42%, respectively. Besides, the PTH antagonist increase entry with PTH antagonist is reported as “(21% increase)”; in the assay with PTH antagonist (listed as PTH suppressant), 21%. For the same molecule, the PTH antagonist worked out at 160 pg/mL in the assay on PTH antagonist (6 weeks (0 weeks: 276)) and 194 pg/mL in the assay with PTH antagonist (12 weeks (0 weeks: 276)). Further, the entries for the “Alkaline Phosphatase decrease” value in assay [1] (6 weeks versus 0 weeks) and in assay [1] (12 weeks versus 6 weeks) were “(13% decrease)” and “(16% decrease)”, respectively. Besides, the “Alkaline Phosphatase” value is listed as 344 U/ml in assay [1] (6 weeks (0 weeks: 396)) and 290 U/ml in assay [1] (12 weeks (0 weeks: 396)). Besides, the “Total PTH decrease” value was “(41% decrease)” with Total PTH (6 weeks versus 0 weeks), 41% with Total PTH (setting [2]), “(1% decrease)” in the assay on Total PTH (12 weeks versus 6 weeks) and 0.8% in the assay with Total PTH (setting [3]). Besides, the “Total PTH” value in the assay on Total PTH (6 weeks (0 weeks: 886)) turned out to be 531 pg/mL; in the assay on Total PTH (12 weeks (0 weeks: 886)), 525 pg/mL.
